Test results from patent publication US20220362219A1, “RETINA REGENERATION THROUGH EPIGENETICS MANIPULATION” (Baylor College of Medicine, priority 2019, published 2022).
“Also recorded” adds a separate entry of the source.

Assays:
Spata7 mutant retina = assay: Intravitreal injection in Spata7 knockout retinal degeneration mouse model (H&E, immunohistochemistry); type: in vivo
Experimental: (§1) FIGS. 1A-1C concern an example of retinal regeneration in Spata7-mutated (KO) retinal cells. (1A) One example of a timeline for studies, where the examples of timepoints are post-natal day 14, 21, and 34, respectively. (1B) Hematoxylin and eosin (H&E) staining for Spata7 KO mice versus wild-type control. Eyes were injected with SYC1127 (treated) eye compared to PBS-injected control. (1C) Immunofluorescence staining for Cone-rod homeobox protein (CRX, a marker for photoreceptor cells and bipolar cells); Glial fibrillary acidic protein (GFAP, a marker for Müller glial cells); and RNA Binding Protein, MRNA Processing Factor (RBPMS, a marker for retinal ganglion cells (RGC)) in Spata7 KO-treated eye (treated with SYC1127) and control eye (treated with PBS).
(§2) H&E staining of all three neural layers of the retina is shown following intravitreal injection of SYC1127 in wild-type mice vs. Spata7 KO mutants.
Immunohistochemistry using antibodies that bind Sox9 or GFAP, both markers of Müller glial cells, is provided for SYC1127-treated Spata7 KO mutants vs. PBS controls.
In this present example, one example of a potent Histone Acetylation Transferase inhibitor (HATi), the compound SYC1127, is administered by intravitreal injection in a retinal degeneration mouse model having a knockout mutation in Spata7. An example of an injection regimen is provided in FIG. 1A, in which there are multiple intravitreal injections. […] To examine if these newly generated cells are indeed differentiated properly, immunohistochemistry (IHC) using antibodies against certain cell type-specific markers is performed. […] The number of regenerative cells is much higher than that of previously reported by others, making it useful for therapy.
Retinal regeneration is induced through epigenomics manipulation, in particular embodiments. […] As at least one type of retinal cells, retinal ganglion cells are induced following administration of SYC1127.

wild-type control retina = assay: Intravitreal injection in wild-type control retina (H&E); type: in vivo
Experimental: as §1, §2
In this present example, one example of a potent Histone Acetylation Transferase inhibitor (HATi), the compound SYC1127, is administered by intravitreal injection in a retinal degeneration mouse model having a knockout mutation in Spata7. An example of an injection regimen is provided in FIG. 1A, in which there are multiple intravitreal injections. […]

[1] = tested on: histone markers H3K27Ac and H3K9Me3 in the retina; assay: Chromatin modification in the retina after intravitreal injection (antibody staining of histone markers); type: in vivo, mouse; details: FIG. 2
From the text: The outer nuclear layers (ONL) and the inner nuclear layers (INL) of the respective retina are shown. Markers related to reduced levels of histone acetylation (H3K27Ac) and increased levels of histone […] are identified with corresponding antibodies.
Further evidence is provided that HATi are useful for chromatin modifications that lead to epigenomic manipulation, thereby leading to regeneration of retinal cells. […] Upon intravitreal injection of the compound SYC1127, there is reduction in the level of histone acetylation as expected, such as with H3K27Ac (an epigenetic modification to Histone H3 that is a mark that indicates the acetylation at the 27th lysine residue of the Histone H3 protein). At the same time, the level of chromatin-repressing histone markers, such as H3K9Me3, is increased.

Compound: c1cc(-c2ccc(-c3ncc(OCC4CCNCC4)nc3-c3ccc(-c4ccoc4)cc3)cc2)co1 [SYC1127, 2,3-bis(4-(furan-3-yl)phenyl)-5-(piperidin-4-ylmethoxy)pyrazine]
- migration of Müller glial cells (Spata7 mutant retina; Spata7 KO, IHC, FIG. 5): Migration of Müller glial cells from the INL to photoreceptor and retinal ganglion cell layers
- number of Müller glial cells (Sox9 positive cells and GFAP staining) (Spata7 mutant retina; Spata7 KO, IHC, FIG. 5): Increase in the number of Müller glial cells
- thickness of neuronal layers vs uninjected Spata7 mutant retina (Spata7 mutant retina; intravitreal injection, H&E, FIG. 1B): thickening of all three neuronal layers
- cell proliferation in Spata7 mutant retina (Spata7 mutant retina; intravitreal injection, H&E, FIG. 1B / FIG. 3): extensive cell proliferation; also recorded: proliferation of all three neural layers of the retina
- Müller glia cell activation (GFAP staining) (Spata7 mutant retina; intravitreal injection, IHC, FIG. 1C): massive elevated Müller glia cell activation
- retinal ganglion cells (RBPMS staining) (Spata7 mutant retina; intravitreal injection, IHC, FIG. 1C / FIG. 4): multiple layers of cells that are positive for retinal ganglion cells (RGC) are observed; also recorded: increase of cells in the RGC layer
- regeneration of retinal neurons in degenerating retina (Spata7 mutant retina; intravitreal injection, overall conclusion): complete regeneration of retinal neurons
- toxicity of injection of the drug (wild-type control retina; FIG. 1B): not toxic
- change in wild-type control retina (wild-type control retina; wild-type, FIG. 1B / FIG. 3): little change; also recorded: no changes are observed
- level of chromatin-repressing histone markers (H3K9Me3) [1]: increased
- level of histone acetylation (H3K27Ac) [1]: reduction
